Laboratory results published in patent publication US10925839B2, “Composition for treating joint disease and kit containing same” (SEIKAGAKU CORPORATION, priority 2017, dated 2021).

Test system: human knee osteoarthritis patients
Assay: Randomized placebo-controlled double-blind trial, WOMAC A (pain) evaluation by VAS
Assay type: in vivo
Conditions: 12 weeks after initial administration; for WOMAC-A Change (average change from baseline): MMRM estimate
Method: The effectiveness of the investigational drug (test drug (composition for treating joint disease of invention) or placebo) when administered 3 times at four-week intervals in the knee joint cavities of human knee osteoarthritis patients was investigated by a multi-center collaborative, randomized, placebo-controlled, double-blind, parallel-group comparison trial. The test drug and placebo were as follows:
Test drug: 3 mL of aqueous solution for injection containing 30 mg of test substance (3.6 mg as diclofenac);
The total amount (3 mL) of the test drug or placebo was administered (injected) into the knee joint cavities of the affected knees of the target patients on week 0, week 4 and week 8 for a total of three injections.
Effectiveness was evaluated by the following evaluation methods at the time of the initial administration and at evaluation points 1, 2, 4, 6, 8, 10 and 12 weeks after the initial administration.
Effectiveness was evaluated using the WOMAC® evaluation (The Journal of Rheumatology 1988; 15:12, p. 1833-1840) developed by Dr. Nicholas Bellamy. The WOMAC(r) evaluation has been established as a method for evaluating osteoarthritis (The Journal of Rheumatology 2000; 27:11, p. 2635-2641).
The patient response method used the VAS (Visual Analog Scale). With the VAS, the degree of a patient's own feelings in response to each question is indicated by the patient on a 100 mm line, and the degree is evaluated according to the position on the line. Position is represented as length from the left end of the scale. For example, a patient is asked the same question about pain in evaluations before and after administration, and the patient responds by indicating a position (degree) on the scale. Numerical values for improvement are then obtained based on the difference between the length indicated by the patient before administration (baseline) and the length indicated by the patient during each evaluation after administration.
The improvement effects were quantified based on the difference between the length indicated by the patient before administration (baseline) and the length indicated by the patient at the time of each evaluation after administration. The analysis results for questions about pain (WOMAC® A: evaluates intensity of pain during walking, etc.) are shown in Table 1 below. In the table, the lower the value of the change difference below 0, the greater the improvement effect.

Sodium hyaluronate with introduced aminoethanol-diclofenac [Test Drug]
WOMAC-A Change difference (test drug group minus placebo group) (patients with 25 ≤ BMI and 26 ≤ DP (weeks)): −13.7
WOMAC-A Change (average change from baseline) (patients with 25 ≤ BMI and 26 ≤ DP (weeks), VAS 100 mm line): −30.7
WOMAC-A Change difference (test drug group minus placebo group) (patients with 25 ≤ BMI and 26 ≤ DP (weeks), listed as test drug): extremely great improvement effect
WOMAC-A Change difference (test drug group minus placebo group) (patients with BMI 25≤ kg/m^2): −13.4
WOMAC-A Change (average change from baseline) (patients with BMI 25≤ kg/m^2, VAS 100 mm line): −32.6
WOMAC-A Change difference (test drug group minus placebo group) (patients with BMI <25 and/or DP <26 weeks): −3.2
WOMAC-A Change (average change from baseline) (patients with BMI <25 and/or DP <26 weeks, VAS 100 mm line): −27.2
WOMAC-A Change difference (test drug group minus placebo group) (patients with BMI <25 kg/m^2): −2.1
WOMAC-A Change (average change from baseline) (patients with BMI <25 kg/m^2, VAS 100 mm line): −25.2
WOMAC-A Change (average change from baseline) (whole group, 30 mg test substance intra-articular at weeks 0, 4, 8, VAS 100 mm line): −28.7
WOMAC-A Change difference (test drug group minus placebo group) (whole group, VAS 100 mm line): −7.0
